Source: US20100144854A1 (priority 2007, published 2010)

Assays:
[1] = tested on: Malignant glioblastoma of the left brain; experiment: Example 4: patient with recurrent brain glioblastoma treated with rhodamine 6G intravenously; type: in vivo, human
Protocol: Patient G. Diagnosis: Malignant glioblastoma of the left brain. Recurrence of cancer. Two years previously a tumor had been removed in connection with a brain glioblastoma. The patient complained of headaches, nausea and vomiting. […] Patient's condition moderately severe; pale skin. […] The procedure took 40 minutes. Subsequent procedures were carried out in exactly the same sequence twice a week. The course of treatment lasted 3 months. During the treatment the tumor reduced in size to 0.3×0.4 cm. After two infusions of the preparation the symptoms of nausea and pain had decreased. The preparation was administered over 6 months as a single dose once every 2 weeks.

[2] = Tolerability on use in a wide range of dosages; type: in vivo; conditions: used in a wide range of dosages
renal cell carcinoma = experiment: Example 2: patient with renal cell carcinoma and lung formations treated with rhodamine 6G; type: in vivo, human; conditions: Patient L, 43
Protocol: Three years previously the left kidney was removed and prophylactic chemotherapy was carried out to treat renal cell carcinoma. […] Severe dyspnea, diagnosis adynamia. Treatment was prescribed, including the use of a medicinal preparation having an anti-tumor action. […] After 4 weeks the dyspnea and pain had decreased. Blood analyses against the treatment background normalised over 3 months. A repeat course of treatment with the preparation was then prescribed, which was administered rectally in the form of a 1% suppository and also by inhalation for 6 months. Over the course of the treatment the tumor in the right kidney and the metastases in the lungs disappeared.

[3] = tested on: primary generalized amyloidosis; experiment: Example 10: patient with primary generalized amyloidosis treated with rhodamine 6G; type: in vivo, human; conditions: Patient T, 67
Source text: Patient T. Diagnosis: Ischemic heart disease: Atherosclerosis, cardiosclerosis, atrial fibrillation. Amyloidosis? On account of deterioration in the patient's condition (increased frequency of dyspnea) the patient was hospitalised. On admission the patient's overall condition was fairly serious. Skin and visible mucous membranes normal colour, moderately cyanosed lips. Heart sounds—muffled, arrhythmia—atrial fibrillation with frequency of ventricular contractions 110 beats/min (pulse deficiency 12), blood pressure 100/60 mm Hg. In left lung, dull percussion sound below the middle of the shoulder blade; no breathing detected above this region. Individual moist rales heard to the right in the projection of the lower lobe. Diseased liver, lower edge extending 4 cm below the level of the costal margin. Edema of the legs as far as middle third of femur and anasarca were diagnosed.
Low voltage waves recorded on ECG, taxistological shape of atrial fibrillation, QS in leads V1-V4. […] Disturbed diastolic relaxation of myocardium of left ventricle was noted. […] In the biochemical blood analysis the level of total protein was reduced (down to 50 g/l), while the levels of urea (to 9.66 mmol/l) and creatinine (to […]) were both raised. […] Ultrasound investigation of organs of the abdominal cavity: enlarged liver (right lobe—16.9 cm), echogenicity reduced, and irregular structure; portal vein−15 mm. Gall bladder: 52×22 mm, wall up to 4 mm, unobstructed lumen. Pancreas: uniform, echogenicity raised, focalized diffuse changes. […] Calyculate-pelvic system of both kidneys not enlarged. Fogging of the lung pattern and diffuse changes were observed on an anterioposterior chest X-ray. A needle liver biopsy was performed in order to exclude amyloidosis. Signs of primary amyloidosis were detected. […] 5% suppositories in the rectum at night. Treatment according to this regimen was continued for 2 months. […] Intravenous administration twice a week. The course of treatment lasted 2 months. […] The liver and kidneys were normal size on an ultrasound scan.

For “9-(2-ethoxycarbonyl)phenyl)-3,6-bis(ethylamino)2,7-dimethylxanthyl chloride [rhodamine 6G]”, the “tumor on CT scan” value ([1]; after 9 months' treatment) was “no tumor could be detected”, the “symptoms of nausea and pain” value ([1]; after two infusions) was “decreased” and the “allergic reactions or other side effects” value [2] was “does not produce any allergic reactions or other side effects”. For the same substance, the dyspnea and pain (renal cell carcinoma; after 4 weeks, 12 drops 1% solution oral three times a day and microenema) was “decreased”, the body weight (renal cell carcinoma; after treatment) was “regained weight” and the “blood analyses against the treatment background” value (renal cell carcinoma; over 3 months) was “normalised”. For the same substance, the “tumor in the kidney and metastases in the lungs” value (renal cell carcinoma; over the course of treatment, before: mass 3.5×5.4×3.7 cm, four lung formations 2.0-2.3 cm) was “disappeared”, the “condition of the patient” value ([3]; 5 g in 250 ml water three times a day, 5% suppositories, 2 months) was “gradually improved” and the “size of the heart, echocardiogram” value ([3]; after oral/rectal 2 months and 2 g i.v. twice a week 2 months) was “reduced”. For the same substance, the “blood and urine analyses” value ([3]; after treatment) was “in the normal range”, the “dilation of the left and right atria, echocardiogram” value ([3]; after treatment) was “significantly reduced” and the “fibrillation on the EKG” value ([3]; after treatment) was “no fibrillation”. The “liver and kidneys, ultrasound scan” value ([3]; after treatment) was “normal size”, the “patient's complaints” value ([3]; after treatment) was “no complaints” and the “voltage waves on the EKG” value ([3]; after treatment) was “in the normal range”.
